Measured values taken from ChEMBL document CHEMBL1151055, “A comparative SAR and computer modeling study of benzisothiazolone, mechanism-based inhibitors with porcine pancreatic and human leukocyte elastase” (Bioorg Med Chem Lett, 1996).

Columns and labels:
[1] = target: T1, Neutrophil elastase (Homo sapiens) (UniProt P08246); assay: Irreversible inhibitory activity against human leukocyte elastase
T1 sequence (whole entry): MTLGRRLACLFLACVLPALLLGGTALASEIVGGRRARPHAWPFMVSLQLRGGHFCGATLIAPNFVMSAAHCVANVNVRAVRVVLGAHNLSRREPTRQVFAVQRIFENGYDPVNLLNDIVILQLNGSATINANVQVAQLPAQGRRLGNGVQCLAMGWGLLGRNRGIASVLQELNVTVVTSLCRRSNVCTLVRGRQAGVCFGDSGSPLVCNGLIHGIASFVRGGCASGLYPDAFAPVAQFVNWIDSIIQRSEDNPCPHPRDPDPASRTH

[2] = target: T2, Chymotrypsin-like elastase family member 2A (Sus scrofa) (UniProt P08419); assay: Irreversible inhibitory activity against porcine pancreatic elastase
T2 sequence (whole entry): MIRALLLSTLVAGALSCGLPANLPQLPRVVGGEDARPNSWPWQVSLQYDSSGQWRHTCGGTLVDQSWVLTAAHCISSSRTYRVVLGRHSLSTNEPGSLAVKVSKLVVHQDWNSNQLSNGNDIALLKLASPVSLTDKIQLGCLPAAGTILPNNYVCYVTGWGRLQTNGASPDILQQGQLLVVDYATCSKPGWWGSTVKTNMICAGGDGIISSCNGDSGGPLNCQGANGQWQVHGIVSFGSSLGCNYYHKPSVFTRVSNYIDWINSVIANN

k on [1]: 3150 M⁻¹ s⁻¹
k on [2]: 830 M⁻¹ s⁻¹
SMILES: COC(=O)CCC(=O)N[C@@H](C)C(=O)N[C@@H](C)C(=O)N1CCC[C@@H]1C(=O)N[C@H](C(=O)CCl)C(C)C
